Assay results taken from PMC4520450, “Procyanidins Negatively Affect the Activity of the Phosphatases of Regenerating Liver” (PLoS ONE, 2015).

How the values were obtained:
[1] = test system: Caco-2 cell model; set-up: method as in PMID 23885956; conditions: within 24h; cited from earlier work
[2] = target: T1, TCPTP (Homo sapiens, UniProt P17706); assay: DiFMUP assay for PTP1B, TCPTP, VHR; type: biochemical; conditions: 12.5 μM, 30 min incubation, 20 μM DiFMUP, 50 nM enzyme
T1 construct: made in house
T1 sequence (P17706 1-415): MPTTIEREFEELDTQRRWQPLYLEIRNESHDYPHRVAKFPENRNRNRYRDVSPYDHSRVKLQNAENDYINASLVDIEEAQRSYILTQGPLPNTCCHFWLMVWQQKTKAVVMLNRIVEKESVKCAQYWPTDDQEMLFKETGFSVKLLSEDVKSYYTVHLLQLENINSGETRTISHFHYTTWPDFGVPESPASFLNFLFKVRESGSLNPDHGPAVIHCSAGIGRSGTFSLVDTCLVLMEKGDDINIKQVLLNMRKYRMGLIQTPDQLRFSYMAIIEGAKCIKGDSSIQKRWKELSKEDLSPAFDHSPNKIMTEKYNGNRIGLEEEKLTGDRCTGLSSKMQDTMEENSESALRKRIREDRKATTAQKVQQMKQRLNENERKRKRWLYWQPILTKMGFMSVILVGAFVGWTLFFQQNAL
Experimental: As an extension of our studies we included PTP1B, VHR and TCPTB as examples for phosphotyrosine specific phosphatases in our activity studies, because tea extracts were reported to inhibit PTP1B [43]. For comparison with PRL-3, these proteins were used in the same concentration (50 nM) as PRL-3 and DiFMUP was also used as a substrate in 20 μM concentration. The enzymes were incubated with three different concentrations of procyanidin C2 (9) for 30 min before the measurement.
Fig 3 Effect of procyanidin C2 (9) on the phosphatase activity of VHR, PTP1B and TCPTP using DiFMUP as a substrate. Proteins were incubated with compound 9 for 30 min., phosphatase activity measurements were performed using 20 μM DiFMUP. Phosphatase activity in the absence of compound 9 was set as 100%. Data represent means ± standard errors of the mean (n = 3).
DiFMUP assay for PTP1B, TCPTP, VHR: In a final reaction volume of 100 μL the PTPs (50 nM final concentration) were incubated with […] of procyanidin C2 (9) for 30 minutes at 25°C. The buffer conditions were pH 7.2, 4-/2-Hydroxyethyl)-1-piperazineethanesulfonic acid (HEPES) 25 mM, EDTA 2.5 mM, DTT 2.0 mM, NaCl 124.4 mM. After the incubation time 20 μL DiFMUP was added to reach a final concentration of 20 μM. On a Tecan safire2 (Tecan, Salzburg, Austria) plate reader dephosphorylation of the substrate to its fluorescent product was monitored by following the emission at […] for 10 minutes. All measurements were done in triplicates, and the experiments were repeated at least three times. The slopes of the initial phases were obtained by linear regression of the data points. The normalized reaction rates were plotted versus the log of the inhibitor concentrations and the IC50 values were obtained by fitting the curves using the one site competition model of GraphPad Prism (GraphPad Software, Version 5). Due to the high water solubility of 9 DMSO was not required and measurements were done in assay buffer only.

[3] = test system: HEK293 empty vector cell line; assay: Transwell cell migration assay; type: cell-based; conditions: 16 h, empty vector cells
Experimental: (§1) To study if procyanidin C2 is able to inhibit PRL-1 and PRL-3 in cells, HEK293 cells were treated in a wound-healing assay (see the experimental procedures). […] As a control the empty vector cell line was again utilized. […] The migration speed was for all cell lines similar when treated with 50 μM of 9. To further corroborate these findings we performed additionally a transwell assay as an alternative way to study cell migration.
(§2) Fig 6 Wound healing abilities of PRL-1 or PRL-3 overexpressing or empty vector control HEK293 cell lines were analyzed in the presence of compound 9 or medium only. Cells were seeded at a concentration of 800,000 cells per insert and procyanidin C2 (9) was added at a concentration of 25 and 50 μM. A) Pictures of the wound gaps were taken at 0 h and 7 h for both conditions (with and without treatment). B) Quantification of the wound healing experiment. Speed of migration is shown for combined data from different replicates, as mean ± SD (n = 38–88). Two-sided t-tests with Welsh correction were performed for p < 0.05. ns = not significant;***: < 0.001; **: < 0.01; *: < 0.05. C) Effect of polyphenolic compounds in a transwell assay on the cell migration of HEK293 empty vector and PRL-3 overexpressing cell lines. Cells were seeded at a concentration of 100,000 cells per insert and procyanidin C2 (9) was added at a final concentration of 25 and 50 μM. Migration was allowed for 16 h before harvesting and staining with calcein AM for fluorescent readout. Mean ± SD (n = 60–72) is shown for combined data from different replicates. Two-sided t-tests with Welsh correction were performed for p < 0.05. ns = not significant. D) Quantification of wound healing experiment including blocking PRL-1 and PRL-3 with analog 3. Speed of migration is shown for combined data from different replicates, as mean ± SD (n = 63–82). Two-sided t-tests with Welsh correction were performed for p < 0.05.
(§3) HEK293 empty vector, PRL-1 and PRL-3 overexpressing cells were kept in selection medium (DMEM medium without Phenol red, supplemented with 10% FBS, 1% glutamine and 0.2% hygromycin and blasticidin) for one week until full confluency. Then, 0.1% tetracycline (1 mg/ml stock solution in ethanol) was added for induction of PRL-1 and PRL-3 expression in HEK293 PRL-1 and HEK PRL-3 wt 24 h prior plating on transwell inserts. For comparison, HEK293 empty vector was also treated with tetracycline. After 24 h, the medium was removed, cells were washed with PBS and starvation medium supplemented with 0.1% tetracycline was added. […] Then, 3x100 μL were taken from each well and transferred to a black assay plates and the relative concentration of the fluorescent product formed in the cells was determined by following the emission at 520 nm with excitation at 452 nm. […]

[4] = test system: PRL-3 overexpressing HEK293 cell line; assay: Transwell cell migration assay; type: cell-based; conditions: 16 h, PRL-3 overexpressing cells
Experimental: as §1, §2, §3

SMILES | permeation [1] | TCPTP phosphatase activity compared to the control [2] | cell migration, transwell ([3]; 25 μM) | cell migration, transwell ([3]; 50 μM) | cell migration, transwell ([4]; 25 μM) | cell migration, transwell ([4]; 50 μM)
Oc1cc(O)c2c(c1)O[C@H](c1ccc(O)c(O)c1)[C@@H](O)[C@@H]2c1c(O)cc(O)c2c1O[C@H](c1ccc(O)c(O)c1)[C@@H](O)C2 [Procyanidin B3 (8), Procyanidin B3] | up to 0.2% | – | – | – | – | –
Oc1cc(O)c2c(c1)O[C@H](c1ccc(O)c(O)c1)[C@@H](O)[C@@H]2c1c(O)cc(O)c2c1O[C@H](c1ccc(O)c(O)c1)[C@@H](O)[C@@H]2c1c(O)cc(O)c2c1O[C@H](c1ccc(O)c(O)c1)[C@@H](O)C2 [Procyanidin C2 (9), Procyanidin C2] | – | 75–85% | did not lead to a significant change in cell migration | significant increase in cell migration | did not lead to a significant change in cell migration | significant decrease in migration
